According to patent US20260191849A1, “PHARMACEUTICAL COMPOSITION FOR TREATMENT OF CANCER” (WIGEN BIOMEDICINE TECHNOLOGY (SHANGHAI) CO., LTD., priority 2022, published 2026):

Tests used:
[1] = system: HT29 subcutaneous xenograft tumors; assay: In vivo pharmacodynamic study, HT29 subcutaneous xenograft tumor model of mice (Biological Example 3); parameters: species or system BALB/c nude mice; conditions: for TGI / Tumor volume on day 1 of administration / Tumor volume on day 28 of administration: 80 mg/kg intragastric once daily; for TGI / Tumor volume on day 28 of administration: day 28; for Tumor volume on day 1 of administration: day 1 (baseline); for inhibitory effects on the HT29 subcutaneous xenograft tumor in mice compared with AMG650: 80 mg/kg, in words
Procedure: BALB/c nude mice were each inoculated subcutaneously with 5×10^6 HT29 cells on the left dorsal side. After the tumors grew to 100-150 mm^3, the mice were randomly divided into the following groups for intragastric administration once daily: group 1: vehicle control group; group 2: compound 661 (80 mg/kg); group 3: compound 669 (80 mg/kg); group 4: compound 677 (80 mg/kg); group 5: compound 714 (80 mg/kg); group 6: compound 727 (80 mg/kg); group 7: compound 740 (80 mg/kg); and group 8: AMG65 (80 mg/kg). The tumor volume was measured twice weekly and at the end of administration. […].

[2] = system: HT29 subcutaneous xenograft tumors; assay: In vivo pharmacodynamic study of combination therapy, HT29 subcutaneous xenograft tumor model of mice (Biological Example 14); parameters: species or system BALB/c nude mice
Text: BALB/c nude mice were each inoculated subcutaneously with 5×10^6 HT29 cells on the left dorsal side. After the tumors grew to 100-150 mm^3, the mice were randomly divided into the following groups for intragastric administration once daily for 14 consecutive days: group 1: vehicle control group; group 2: AMG650 (50 mpk, PO, QD); group 3: compound 714 (50 mpk, PO, QD); group 4: AMG650 (50 mpk, PO, QD)+Onvasertib (20 mpk, PO, QD); group 5: compound 714 (50 mpk, PO, QD)+Onvasertib (20 mpk, PO, QD); and group 6: Onvasertib (20 mpk, PO, QD). The administration to all the groups was stopped on day 15, and the tumor growth continued to be observed until day 21. The tumor volume was measured twice weekly and at the end of administration. […]

[3] = system: Histone H3 Ser10 site in HT29 cells; assay: Phosphorylation assay of histone H3 Ser10 site in HT29 cells, immunofluorescence (Biological Example 4); format: cell-based; conditions: Homo sapiens, HT-29, 6 h, FITC/DAPI
Procedure: HT29 cells were seeded in a 96-well plate (Fisher 160376) at 8000 cells/well. The next day, the serially diluted compounds were added. Six hours after the addition of the compounds, the cells were washed once with 1×PBS, immobilized with 4% PFA for 15 min, further washed three times with 1×PBS, and permeabilized with 0.02% Triton-X100 for 10 min. Then, blocking was performed for 15-30 min using a blocking buffer. After a primary antibody (Phospho-Histone H3 (Ser10)) at a 1:3000 dilution was added, the well plate was left to stand at 4° C. overnight. The next day, the cells were washed three times with 1×PBS, and then a secondary antibody (Fluorescein (FITC)-conjugated Affinipure Goat Anti-Rabbit IgG (H+L)) at a 1:1000 dilution was added. The cells were incubated in the dark for 1-2 h and then washed three times with 1×PBS. Subsequently, the cell nuclei were stained using DAPI. The ratio of phosphorylation (FITC/DAPI) at H3 Ser10 site in HT29 cells was quantified. The effects of the compounds on Phospho-Histone H3 were evaluated, and EC50 values of the compounds were calculated.

[4] = PO QD 14 days, AMG650/714 50 mpk, Onvasertib 20 mpk, day 15
[5] = PO QD 14 days, AMG650/714 50 mpk, Onvasertib 20 mpk, day 21, after stop of administration

COc1ccc(C(=O)Nc2ccc(NS(=O)(=O)CCOC(C)=O)cc2N2CCC3(CC2)CC3)nc1N1CCC(F)(F)CC1 [Compound 669]
TGI [1]: 30%

COc1ccc(NC(=O)c2ccc(S(=O)(=O)NCCOC(C)=O)cc2N2CCC3(CC2)CC3)nc1N1CCC(F)(F)CC1 [Compound 677]
TGI [1]: 55%

COc1ccc(NC(=O)c2ccc(NS(=O)(=O)CCOC(=O)[C@@H](N)C(C)C)cc2N2CCC3(CC2)CC3)nc1N1CCC(F)(F)CC1 [Compound 714]
Tumor volume on day 1 of administration ([2]; PO QD 14 days, AMG650/714 50 mpk, Onvasertib 20 mpk, day 1 (baseline)): 134 mm^3
TGI on day 15 [2, 4]: 121%
Tumor volume on day 15 of administration [2, 4]: 17 mm^3
TGI on day 21 [2, 5]: 110%
Tumor volume on day 21 of administration [2, 5]: 49 mm^3
tumor inhibitory effect, combined use with the PLK1 inhibitor Onvasertib compared with monotherapy ([2]; combined with Onvasertib, in words): stronger tumor inhibitory effect
therapeutic efficacy of monotherapy in HT29-bearing mice ([2]; monotherapy, in words): able to inhibit tumor growth
Tumor volume on day 1 of administration [1]: 121 mm^3
TGI [1]: 80%
Tumor volume on day 28 of administration [1]: 424 mm^3
inhibitory effects on the HT29 subcutaneous xenograft tumor in mice compared with AMG650 [1]: stronger inhibitory effects
EC50 [3]: 39.2 nM

COc1ccc(C(=O)Nc2ccc(NS(=O)(=O)CCOC(=O)[C@@H](N)C(C)C)cc2N2CCC3(CC2)CC3)nc1N1CCC(F)(F)CC1 [Compound 727]
Tumor volume on day 1 of administration [1]: 121 mm^3
TGI [1]: 73%
Tumor volume on day 28 of administration [1]: 519 mm^3
inhibitory effects on the HT29 subcutaneous xenograft tumor in mice compared with AMG650 [1]: stronger inhibitory effects

COc1ccc(NC(=O)c2ccc(S(=O)(=O)NCCOC(=O)[C@@H](N)C(C)C)cc2N2CCC3(CC2)CC3)nc1N1CCC(F)(F)CC1 [Compound 740]
Tumor volume on day 1 of administration [1]: 121 mm^3
TGI [1]: 67%
Tumor volume on day 28 of administration [1]: 605 mm^3
inhibitory effects on the HT29 subcutaneous xenograft tumor in mice compared with AMG650 [1]: stronger inhibitory effects

COc1ccc(NC(=O)c2ccc(NS(=O)(=O)CCOC(C)=O)cc2N2CCC3(CC2)CC3)nc1N1CCC(F)(F)CC1 [Compound 661]
TGI [1]: 61%
